Measurements from patent US7309484B2, “Compositions and methods for screening antibacterial compounds” (priority 2003, dated 2007).

Tests used:
[1] = system: liaI expression (liaI::pMUTIN lacZ fusion, strain BFS2470; also liaH::pMUTIN, BFS2469); assay: Disk-diffusion assay, blue ring on X-Gal plates; type: cell-based, Bacillus subtilis; conditions: for disk-diffusion assay: qualitative screen of β-Galactosidase activity, blue ring at edge of zone of inhibition, LB plates with X-Gal, strain BFS2470; for induction of liaI / liaH expression, in words: strains BFS2469 and BFS2470; on Disk-diffusion assay: key: −: no induction; +: induction of yvql expression
Description: The pMUTIN-insertion results in a disruption of the targeted gene and generates a transcriptional fusion to lacZ thereby allowing detection of both antibiotic sensitivity (as defined by the zone of inhibition around the disk) and inducibility (by the formation of a blue ring at the edge of the zone of inhibition) (Cao et al., 2002, Mol Microbiol. 45: 1267-1276, the entire teaching of which is incorporated herein). The disruption of liaI and liaH had no effect on the sensitivity of the mutants to any of the antibiotics tested. […] Equivalent levels of induction were also observed with the PliaI-74-cat-lacZ fragment (in HB0950), albeit with lower fold-changes (See, Table 2). While the mode of action is different for these antibiotics, all four interfere with the lipid II cycle, essential for the biosynthesis of cell envelope polymers (Lazar et al., 2002, Curr. Opin. Chem. Biol. 6: 786-93).
PliaI induction assays: Screening for liaI induction was done by disk diffusion assay essentially as described (Cai, S. J., and M. Inouye, 2002, J Biol Chem 277:24155-61). B. subtilis strains were inoculated from a fresh overnight LB agar plate and grown to mid-log phase (OD600 ˜0.45) at 37 YC with shaking. 20 μl of the culture was mixed with 3 ml of 0.7% soft LB agar (containing 40 μg of X-Gal per plate) and poured onto the bottom agar. After cooling and drying of the plates (20 min at 37 YC), filter paper disks (6 mm diameter) carrying 5 μl of stock solution (antibiotics normally 100 mg/ml; lysozyme 10 mg/ml; tunicamycin, surfactants, uncouplers 5 mg/ml each; inhibitors of protein biosynthesis as given in the media and growth conditions section) were placed on top of the agar. The plates were incubated at 37 YC overnight. After 12-24 h incubation, the plates were scored for the appearance of a blue ring at or near the edge of the zone of growth inhibition produced by the diffusion of the antibiotics from the filter disk.

[2] = system: B. subtilis strain BFS2470; assay: Concentration-dependent induction/killing experiments; type: cell-based, Bacillus subtilis; conditions: for lacZ-expression at higher concentration: FIG. 7a; for lacZ-expression at higher concentration / effect on cell growth / optical density: in words; for effect on cell growth / optical density: high concentrations, FIG. 7b; for antibiotic concentration at maximum induction of liaI: β-galactosidase assay after 30 min, 0.01 to 100 μg/ml tested
Description: Concentration-dependent induction/killing experiments were performed for bacitracin, nisin, ramoplanin and vancomycin as shown in FIG. 7. In all four cases the induction of liaI occurred in a concentration-dependent manner (FIG. 7a), reaching a maximum at an antibiotic concentration of about 10 μg/ml (1 μg/mL for vancomycin). The time of antibiotic addition is indicated by an arrow. The antibiotic concentrations affecting the induction of PliaI according to the β3-galactosidase assay are indicated by white symbols. The corresponding concentrations are: bacitracin ([…]), nisin (50, 70 and 100 μg/ml), ramoplanin (20, 50 and 100 μg/mL) and vancomycin (5, 10, 50 and 100 μg/mL).
This finding correlates well with the bactericidal effects of these antibiotics as inferred from the dramatic decrease of optical density: there is little effect of bacitracin and vancomycin on cell growth during the first 30-60 min after addition even at high concentrations (FIG. 7b).
The cultures were incubated with aeration at 37° C.

[3] = system: liaI expression in B. subtilis; conditions: 10 min after vancomycin addition; cited from earlier work
[4] = system: liaI expression (pMUTIN-derived lacZ fusion, strain BFS2470); assay: microbe, parasite or virus in culture; conditions: for fold induction of liaI expression: text to FIG. 4: bacitracin 100 μg/mL, tunicamycin 50 μg/mL, vancomycin 2 μg/mL, 30 minutes, nisin, ramoplanin results not shown
Description: Disc-diffusion assays were used to determine the spectrum of stimuli that induce the expression of liaIH. The B. subtilis strains BFS2469 and BFS2470 (Table 2), harboring pMUTIN-insertions in liaH and liaI respectively, were plated on a medium containing the indicator dye X-gal and overlaid with filter disks impregnated with various antibiotics that interfere with cell wall biosynthesis. Specifically, cultures of B. subtilis strain BFS2469 (liaH::pMUTIN) and BFS2470 (liaI::pMUTIN) were grown in LB medium to midlog phase, 2 mL for the un-induced control sample were harvested, and the remaining culture was induced with the three antibiotics for 30 minutes, before the cells of the induced sample were harvested. All samples were taken in duplicate from two independent cultures and the standard deviation is indicated by error bars.
Measurement of induction by β-galactosidase assays: Cells were inoculated from fresh overnight LB-plates and grown in LB-medium at 37° C. with aeration until they reached an O.D.600=0.45. 2 mL of cultures were harvested (un-induced control) and the cell pellets were shock frozen and kept at −70° C. The cultures were induced by addition of antibiotics to a final concentration of: bacitracin (100 μg/mL), tunicamycin (50 μg/mL) or vancomycin (2 μg/mL) and incubated for additional 30 min at 37° C. 2 mL of the cultures were harvested as described above (induced sample). The pellets were re-suspended in 1 mL of working buffer and assayed for β-galactosidase activity as described with normalization to cell density (Miller, 1972, the entire teaching of which is incorporated herein by reference).
For quantitative measurements of β-galactosidase activity, cells were inoculated from fresh overnight LB-plates and grown in LB medium at 37 YC with aeration until they reached an OD600 of 0.45. 2 ml of the culture was harvested (un-induced control) and the cell pellets were frozen and kept at −80 YC. The cultures were induced by addition of the compound to be tested to the final concentration as described in the individual figure legends and incubated for an additional 30 min at 37 YC. 2 ml of the cultures were harvested as described above. The pellets were re-suspended in 1 ml of working buffer (60 mM Na2HPO4, 40 mMNaH2PO4, 10 mM KCl, 1 mM MgSO4, 4 mM DTT) and assayed for β-galactosidase activity as described with normalization to cell density Kobayashi, K., et al., 2001, J Bacteriol 183:7365-7370). […] A sample was taken after 30 min for β-galactosidase assay and the turbidity of the remaining culture was measured for at least 5 hours to monitor the concentration-dependent effects of the antibiotics on cell growth.

Row | Molecule | disk-diffusion assay [1] | also measured
1 | CC1(C)S[C@@H]2[C@H](NC(=O)[C@H](N)c3ccccc3)C(=O)N2[C@H]1C(=O)O [Ampicillin] | − | 
2 | CCCCCCCCCCCC[N+](C)(C)Cc1ccccc1.[Br-] [BDMDDA-Br, Benzyldimethyldodecylammonium bromide] | − | 
3 | CCCCCCCCCCCCCCCC[N+](C)(C)Cc1ccccc1.[Cl-] [BDMHDA-Cl, Benzyldimethylhexadecylammonium chloride] | + | induction of liaI / liaH expression, in words [1]: moderately induced
4 | N#CC(C#N)=NNc1cccc(Cl)c1 [CCCP] | − | induction of liaI / liaH expression, in words [1]: neither elevated liaIH expression
5 | O=C(N[C@H](CO)[C@H](O)c1ccc([N+](=O)[O-])cc1)C(Cl)Cl [Chloramphenicol] | − | 
6 | N[C@@H]1CONC1=O [D-cycloserin] | − | 
7 | O=[N+]([O-])c1ccc(O)c([N+](=O)[O-])c1 [DNP] | − | induction of liaI / liaH expression, in words [1]: neither elevated liaIH expression
8 | CCCCCCCCCCCCCCCC[N+](C)(C)C.[Br-] [HDTMA-Br, Hexadecyltrimethylammonium] | − | 
9 | CC1(C)S[C@@H]2[C@H](NC(=O)Cc3ccccc3)C(=O)N2[C@H]1C(=O)O [Penicillin G] | − | 
10 | CCCCCCCCCCCCOS(=O)(=O)[O-].[Na+] [SDS, sodium dodecylsulfate] | − | 
11 | CN[C@H](CC(C)C)C(=O)N[C@H]1C(=O)N[C@@H](CC(N)=O)C(=O)N[C@H]2C(=O)N[C@H]3C(=O)N[C@H](C(=O)N[C@H](C(=O)O)c4cc(O)cc(O)c4-c4cc3ccc4O)[C@H](O)c3ccc(c(Cl)c3)Oc3cc2cc(c3O[C@@H]2O[C@H](CO)[C@@H](O)[C@H](O)[C@H]2O[C@H]2C[C@](C)(N)[C@H](O)[C@H](C)O2)Oc2ccc(cc2Cl)[C@H]1O [Vancomycin] | + | induction of liaI / liaH expression, in words [1]: induced; lacZ-expression at higher concentration [2]: remained elevated; effect on cell growth / optical density [2]: little effect; antibiotic concentration at maximum induction of liaI [2]: ~1 µg/mL; increase in liaI expression level [3]: more than 100 fold; fold induction at 2 µg/mL ([4]; Bacillus subtilis, 0.5 h, read-out: fold induction of liaI expression): ~65
12 | NC[C@H]1O[C@H](O[C@H]2[C@H](O)[C@@H](O[C@H]3O[C@H](CO)[C@@H](O)[C@H](N)[C@H]3O)[C@H](N)C[C@@H]2N)[C@H](O)[C@@H](O)[C@@H]1O [kanamycin] | − | 
13 | CO[C@H]1/C=C/O[C@@]2(C)Oc3c(C)c(O)c4c(O)c(c(/C=N/N5CCN(C)CC5)c(O)c4c3C2=O)NC(=O)/C(C)=C\C=C\[C@H](C)[C@H](O)[C@@H](C)[C@@H](O)[C@@H](C)[C@H](OC(C)=O)[C@@H]1C [rifampicin] | − | 
14 | CN[C@@H]1[C@H](O)[C@H](NC)[C@H]2O[C@@]3(O)C(=O)C[C@@H](C)O[C@H]3O[C@@H]2[C@H]1O [spectinomycin] | − | 
15 | [H]/N=C(/N)N[C@H]1[C@H](O)[C@@H](O)[C@H](O[C@@H]2O[C@@H](C)[C@](O)(C=O)[C@H]2O[C@@H]2O[C@@H](CO)[C@H](O)[C@@H](O)[C@@H]2NC)[C@@H](N/C(N)=N\[H])[C@@H]1O [streptomycin] | − | 
16 | CN(C)[C@@H]1C(O)=C(C(N)=O)C(=O)[C@@]2(O)C(O)=C3C(=O)c4c(O)cccc4[C@@](C)(O)[C@H]3C[C@@H]12 [tetracycline] | − | 
17 | Lysozyme | − | induction of liaI / liaH expression, in words [1]: ineffective as an inducer
18 | Moenomycin | − | 
19 | Polymyxin B | − | 
20 | Ramoplanin | + | induction of liaI / liaH expression, in words [1]: induced; lacZ-expression at higher concentration [2]: strong decrease down to un-induced levels; effect on cell growth / optical density [2]: rapid cell lysis; antibiotic concentration at maximum induction of liaI [2]: about 10 μg/ml; fold induction of liaI expression [4]: 420 fold
21 | Triton X100 | − | 
22 | Tunicamycin | + | fold induction of liaI expression [4]: three-fold
